{"source": "ChEMBL document CHEMBL1201862", "about": "“PubChem BioAssay data set” (2004)", "key": {"[1]": {"molecular_target": "Melanin-concentrating hormone receptor 1 (Homo sapiens, UniProt Q99705)", "experiment": "Late-stage fluorescence-based counterscreen for antagonists of the G-protein coupled receptor 7 (GPR7): cell-based dose response assay to identify antagonists of the melanin-concentrating hormone receptor 1 (MCHR1) Set 5.", "assay_type": "functional"}, "[2]": {"molecular_target": "Neuropeptides B/W receptor type 1 (Homo sapiens, UniProt P48145)", "experiment": "human NPBW1 receptor blockade, IC50 – cell-based, fluorescence, dose response, set 5, late-stage follow-up (AID 588566)", "assay_type": "functional"}, "[3]": {"molecular_target": "T1, DNA repair protein RAD52 homolog (Homo sapiens, UniProt P43351)", "T1 sequence (P43351 whole entry)": "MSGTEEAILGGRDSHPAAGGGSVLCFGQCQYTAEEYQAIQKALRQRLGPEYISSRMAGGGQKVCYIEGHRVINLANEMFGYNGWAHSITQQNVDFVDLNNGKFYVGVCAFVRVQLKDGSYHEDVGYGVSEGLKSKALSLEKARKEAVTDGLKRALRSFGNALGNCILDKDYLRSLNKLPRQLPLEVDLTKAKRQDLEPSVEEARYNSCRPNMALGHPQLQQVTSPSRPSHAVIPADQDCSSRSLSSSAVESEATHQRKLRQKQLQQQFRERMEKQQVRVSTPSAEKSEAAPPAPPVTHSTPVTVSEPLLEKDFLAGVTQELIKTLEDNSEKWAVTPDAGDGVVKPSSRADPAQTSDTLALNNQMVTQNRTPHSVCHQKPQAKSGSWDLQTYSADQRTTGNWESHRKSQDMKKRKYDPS", "assay_type": "functional, biochemical"}, "[4]": {"molecular_target": "DNA repair and recombination protein RAD54-like (Homo sapiens, UniProt Q92698)", "sequence (Q92698 whole entry)": "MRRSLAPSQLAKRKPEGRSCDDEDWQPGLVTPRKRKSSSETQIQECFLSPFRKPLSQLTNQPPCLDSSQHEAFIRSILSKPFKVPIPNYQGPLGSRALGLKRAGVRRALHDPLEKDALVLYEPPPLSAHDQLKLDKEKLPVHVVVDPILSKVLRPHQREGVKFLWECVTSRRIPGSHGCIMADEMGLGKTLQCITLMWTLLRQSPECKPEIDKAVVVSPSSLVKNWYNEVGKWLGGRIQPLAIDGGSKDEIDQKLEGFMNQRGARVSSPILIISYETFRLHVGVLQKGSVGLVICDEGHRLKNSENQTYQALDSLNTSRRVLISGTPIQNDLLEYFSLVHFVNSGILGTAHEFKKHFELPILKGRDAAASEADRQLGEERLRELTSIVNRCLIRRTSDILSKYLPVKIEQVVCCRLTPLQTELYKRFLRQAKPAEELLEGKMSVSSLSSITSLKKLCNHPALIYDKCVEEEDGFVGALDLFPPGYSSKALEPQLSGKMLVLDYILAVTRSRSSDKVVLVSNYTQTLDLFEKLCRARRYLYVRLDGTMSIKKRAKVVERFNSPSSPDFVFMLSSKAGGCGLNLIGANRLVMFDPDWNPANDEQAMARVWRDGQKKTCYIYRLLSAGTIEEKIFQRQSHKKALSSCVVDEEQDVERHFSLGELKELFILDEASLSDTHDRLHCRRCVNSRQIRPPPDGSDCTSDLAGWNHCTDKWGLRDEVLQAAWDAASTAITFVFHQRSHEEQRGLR", "experiment": "RAD54 Holliday junction migration blockers – biochemical, fluorescence, cherry-picked samples, dose series, confirmation (AID 651657)", "assay_type": "functional"}, "[5]": {"molecular_target": "ADP-ribosylation factor GTPase-activating protein 1 (Rattus norvegicus, UniProt Q62848)", "sequence (Q62848 whole entry)": "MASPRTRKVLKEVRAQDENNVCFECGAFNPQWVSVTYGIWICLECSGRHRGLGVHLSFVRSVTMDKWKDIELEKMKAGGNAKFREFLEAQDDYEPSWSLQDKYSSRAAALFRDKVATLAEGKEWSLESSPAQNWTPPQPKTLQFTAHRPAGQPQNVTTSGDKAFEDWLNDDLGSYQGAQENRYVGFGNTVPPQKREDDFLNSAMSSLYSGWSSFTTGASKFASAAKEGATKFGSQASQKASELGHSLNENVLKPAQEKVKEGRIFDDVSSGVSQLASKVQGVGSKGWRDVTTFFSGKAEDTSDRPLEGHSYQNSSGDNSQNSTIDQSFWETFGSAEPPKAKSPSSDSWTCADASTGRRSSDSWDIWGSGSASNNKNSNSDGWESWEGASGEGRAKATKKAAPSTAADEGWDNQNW", "experiment": "Fluorescence polarization-based biochemical high throughput dose response screening assay to identify inhibitors of ADP-ribosylation factor GTPase activating protein 1 (ARFGAP1).", "assay_type": "functional"}, "[6]": {"molecular_target": "Arf-GAP with SH3 domain, ANK repeat and PH domain-containing protein 1 (Homo sapiens, UniProt Q9ULH1)", "sequence (Q9ULH1 whole entry, the tested form may be a part)": "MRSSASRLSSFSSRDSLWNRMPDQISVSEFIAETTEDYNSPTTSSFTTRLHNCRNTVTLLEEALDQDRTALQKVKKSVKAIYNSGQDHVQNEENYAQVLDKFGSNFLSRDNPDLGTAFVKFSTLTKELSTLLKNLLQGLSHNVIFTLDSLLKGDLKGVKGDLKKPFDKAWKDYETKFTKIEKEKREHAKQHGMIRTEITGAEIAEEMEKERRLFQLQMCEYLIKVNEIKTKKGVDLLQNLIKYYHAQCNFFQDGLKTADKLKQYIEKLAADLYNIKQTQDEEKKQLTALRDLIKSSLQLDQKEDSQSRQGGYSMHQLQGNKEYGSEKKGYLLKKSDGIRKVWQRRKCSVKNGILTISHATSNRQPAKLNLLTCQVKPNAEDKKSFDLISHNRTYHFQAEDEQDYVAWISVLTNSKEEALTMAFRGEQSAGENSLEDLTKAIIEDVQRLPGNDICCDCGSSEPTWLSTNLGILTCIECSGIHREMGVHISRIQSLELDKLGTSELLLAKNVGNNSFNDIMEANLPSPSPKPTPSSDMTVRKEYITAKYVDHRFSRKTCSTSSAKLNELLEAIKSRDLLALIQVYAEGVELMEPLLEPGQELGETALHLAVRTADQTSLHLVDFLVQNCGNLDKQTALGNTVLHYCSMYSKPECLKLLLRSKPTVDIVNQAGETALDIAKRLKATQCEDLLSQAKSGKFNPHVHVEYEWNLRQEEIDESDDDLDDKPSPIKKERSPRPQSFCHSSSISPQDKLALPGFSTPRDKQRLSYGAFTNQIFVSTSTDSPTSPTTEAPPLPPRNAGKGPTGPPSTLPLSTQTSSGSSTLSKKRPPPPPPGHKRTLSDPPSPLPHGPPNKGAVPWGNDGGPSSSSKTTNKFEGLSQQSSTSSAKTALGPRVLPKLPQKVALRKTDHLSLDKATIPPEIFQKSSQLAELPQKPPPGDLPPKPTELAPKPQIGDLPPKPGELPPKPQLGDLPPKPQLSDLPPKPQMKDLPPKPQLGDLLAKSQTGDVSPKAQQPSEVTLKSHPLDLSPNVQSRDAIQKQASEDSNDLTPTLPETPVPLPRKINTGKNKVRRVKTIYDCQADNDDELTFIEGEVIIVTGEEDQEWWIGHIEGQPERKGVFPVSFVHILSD", "assay_type": "functional"}, "[7]": {"molecular_target": "T2, Small ubiquitin-related modifier 1 (Homo sapiens, UniProt P63165)", "T2 sequence (P63165 whole entry)": "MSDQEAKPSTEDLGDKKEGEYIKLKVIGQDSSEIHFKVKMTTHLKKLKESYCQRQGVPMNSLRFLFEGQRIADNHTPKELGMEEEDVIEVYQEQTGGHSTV", "experiment": "SUMO1 protein-protein binding blockers, potency – biochemical, FRET, dose response (AID 624383)", "assay_type": "functional", "conditions": "read-out: IC50_Mean"}, "[8]": {"molecular_target": "T2, Small ubiquitin-related modifier 1", "experiment": "SUMO1 protein interaction blockers, potency – biochemical, fluorescence polarization, uHTS hits, dose response (AID 624382)", "assay_type": "functional", "conditions": "read-out: IC50_Mean"}, "[9]": {"experiment": "general mammalian cell viability loss – inhibitor set, cherry-pick, set 2, cytotoxicity control for miR-122 modulator project, dose response (AID 720697)", "assay_type": "functional, cell-based"}, "[10]": {"experiment": "alpha-synuclein stem-loop luciferase translation blockers – H4 neuroglioma cells, luminescence, confirmation (AID 1988)", "assay_type": "functional, cell-based"}, "[11]": {"molecular_target": "T3, Ubiquitin-conjugating enzyme E2 N (Homo sapiens, UniProt P61088)", "T3 sequence (P61088 whole entry)": "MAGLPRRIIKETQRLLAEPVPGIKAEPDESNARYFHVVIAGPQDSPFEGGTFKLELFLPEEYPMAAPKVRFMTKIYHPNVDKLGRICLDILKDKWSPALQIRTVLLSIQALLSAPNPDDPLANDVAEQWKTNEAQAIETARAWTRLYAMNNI", "assay_type": "functional"}, "[12]": {"experiment": "luciferase reporter signal suppression in cells – H4 neuroglioma cells, luminescence, dose response (AID 1990)", "assay_type": "functional, cell-based"}, "Streptokinase A": {"molecular_target": "T4, Streptokinase A (Streptococcus pyogenes serotype M1, UniProt P10520)", "T4 sequence (P10520 whole entry)": "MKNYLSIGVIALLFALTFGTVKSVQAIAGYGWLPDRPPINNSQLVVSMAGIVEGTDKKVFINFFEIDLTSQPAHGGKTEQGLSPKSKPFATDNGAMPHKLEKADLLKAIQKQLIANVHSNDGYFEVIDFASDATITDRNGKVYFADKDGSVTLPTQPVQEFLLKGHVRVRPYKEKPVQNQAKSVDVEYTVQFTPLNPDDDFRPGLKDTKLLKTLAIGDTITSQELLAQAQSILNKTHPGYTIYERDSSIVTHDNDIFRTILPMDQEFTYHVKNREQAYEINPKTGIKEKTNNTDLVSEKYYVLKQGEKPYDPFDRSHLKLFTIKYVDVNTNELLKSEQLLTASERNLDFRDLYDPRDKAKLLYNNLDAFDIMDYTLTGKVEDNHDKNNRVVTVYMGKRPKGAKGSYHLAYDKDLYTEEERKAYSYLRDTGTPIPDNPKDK", "experiment": "viability-normalized secreted streptokinase activity reduction – plasminogen activation absorbance, OD405, dose response (AID 1914)", "assay_type": "functional, Streptococcus pyogenes M1 GAS"}, "Melanocortin receptor 4": {"molecular_target": "Melanocortin receptor 4 (Homo sapiens, UniProt P32245)", "sequence (P32245 whole entry)": "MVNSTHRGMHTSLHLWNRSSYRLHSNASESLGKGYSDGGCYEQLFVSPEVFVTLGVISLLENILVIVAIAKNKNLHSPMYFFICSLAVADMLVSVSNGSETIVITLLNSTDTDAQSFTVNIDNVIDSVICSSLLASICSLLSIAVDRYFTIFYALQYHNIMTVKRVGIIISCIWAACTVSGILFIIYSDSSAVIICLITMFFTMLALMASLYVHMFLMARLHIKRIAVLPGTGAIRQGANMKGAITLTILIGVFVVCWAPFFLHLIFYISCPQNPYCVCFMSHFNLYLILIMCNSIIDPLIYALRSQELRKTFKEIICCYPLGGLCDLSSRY", "assay_type": "functional, cell-based"}, "[13]": {"experiment": "general mammalian cell viability loss – activator set, cherry-pick, cytotoxicity control for miR-122 modulator project, dose response (AID 720690);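 also: HEK293T human cells scored for general mammalian cytotoxicity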", "assay_type": "functional, cell-based"}, "Interleukin-8 [14]": {"molecular_target": "T5, Interleukin-8 (Homo sapiens, UniProt P10145)", "T5 sequence (P10145 whole entry)": "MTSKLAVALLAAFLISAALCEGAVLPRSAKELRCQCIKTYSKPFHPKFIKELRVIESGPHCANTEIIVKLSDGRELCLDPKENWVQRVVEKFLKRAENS", "experiment": "Dose Response confirmation of uHTS small molecule hits for cystic fibrosis induced NFkb Inhibitors in a PAF-induced IL8 counterscreen.", "assay_type": "functional", "conditions": "read-out: IC50_Mean"}, "Paired box protein Pax-8": {"molecular_target": "Paired box protein Pax-8 (Homo sapiens, UniProt Q06710)", "sequence (Q06710 whole entry)": "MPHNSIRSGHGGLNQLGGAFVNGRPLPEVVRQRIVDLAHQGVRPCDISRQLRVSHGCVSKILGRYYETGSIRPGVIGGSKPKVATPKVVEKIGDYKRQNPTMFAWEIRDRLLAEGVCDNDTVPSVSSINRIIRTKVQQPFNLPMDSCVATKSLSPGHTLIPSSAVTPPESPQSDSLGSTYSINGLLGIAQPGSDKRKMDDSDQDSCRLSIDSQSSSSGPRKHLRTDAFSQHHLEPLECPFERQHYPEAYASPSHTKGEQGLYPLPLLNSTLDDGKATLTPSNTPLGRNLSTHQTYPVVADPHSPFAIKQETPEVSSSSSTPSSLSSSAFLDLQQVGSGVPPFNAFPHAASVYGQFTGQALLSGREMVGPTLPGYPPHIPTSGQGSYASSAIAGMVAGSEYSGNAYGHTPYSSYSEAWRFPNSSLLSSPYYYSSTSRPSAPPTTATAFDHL", "experiment": "PAX8 transcriptional activity inhibition in RMG-I – RMG-I cells, luciferase, cherry-pick, dose response (AID 687027)", "assay_type": "functional, cell-based"}, "[15]": {"molecular_target": "Long-chain-fatty-acid--AMP ligase FadD28 (Mycobacterium tuberculosis, UniProt P9WQ59)", "sequence (P9WQ59 whole entry)": "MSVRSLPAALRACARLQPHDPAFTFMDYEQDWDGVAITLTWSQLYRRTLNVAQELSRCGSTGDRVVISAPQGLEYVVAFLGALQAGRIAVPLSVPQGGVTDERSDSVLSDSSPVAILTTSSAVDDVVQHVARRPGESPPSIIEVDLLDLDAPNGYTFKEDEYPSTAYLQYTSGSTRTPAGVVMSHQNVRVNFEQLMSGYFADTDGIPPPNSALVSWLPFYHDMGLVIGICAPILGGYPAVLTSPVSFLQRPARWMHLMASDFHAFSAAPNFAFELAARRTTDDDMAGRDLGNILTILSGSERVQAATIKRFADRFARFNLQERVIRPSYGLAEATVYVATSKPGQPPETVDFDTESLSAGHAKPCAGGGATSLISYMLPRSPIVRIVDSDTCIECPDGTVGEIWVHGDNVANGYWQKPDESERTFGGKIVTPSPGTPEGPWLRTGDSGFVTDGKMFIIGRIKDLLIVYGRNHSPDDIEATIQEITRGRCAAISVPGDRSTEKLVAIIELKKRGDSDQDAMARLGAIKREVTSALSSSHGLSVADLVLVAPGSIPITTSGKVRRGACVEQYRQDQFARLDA", "experiment": "Fluorescence polarization aasay to screen for inhibitors that compete for the binding of FadD28 to a bisubstrate Measured in Biochemical System Using Plate Reader - 2147-01_Inhibitor_Dose_CherryPick_Activity.", "assay_type": "functional, Mycobacterium tuberculosis H37Rv"}, "[16]": {"experiment": "activation of miR-122 Renilla sensor silencing – cell-based, Huh7 psiCHECK-miR122, Renilla luciferase, cherry-picked, dose response (AID 651956);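 also: huh7 hepatoma cells stably carrying a psiCHECK-2 miR-122 sensor plasmid; renilla luciferase signal reporting endogenous miR-122 activity after 48 h compound exposure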", "assay_type": "functional"}, "[17]": {"experiment": "Luminescence Cell-Based Dose Response HTS to Identify Inhibitors of 5'UTR Stem-Loop Driven Prion Protein mRNA Translation in H4 Neuroglioblastoma Cells. [Related pubchem assays: 1827 (Project Summary), 1813 (Primary HTS)]", "assay_type": "functional"}, "[18]": {"experiment": "general cell-killing toxicity readout – plate reader, dry powder samples, cytotoxicity control for PAX8 inhibitor project, dose response (AID 743021)", "assay_type": "functional, cell-based"}, "INS1": {"tested_on": "INS1", "experiment": "INS-1E survival protection against cytokine death – cell-based, luminescence, retest, dose response (AID 449756);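 also: cell death triggered by IL-1 beta plus TNF-alpha plus IFN-gamma mixture; protective hits raise ATP signal compared with cytokine alone wells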", "assay_type": "functional", "conditions": "Rattus norvegicus"}, "[19]": {"tested_on": "Streptococcus sp. 'group A'", "experiment": "Streptococcus pyogenes SK(-)GAS viability under kanamycin – luminescence, BacTiterGlo, confirmation, counter-screen for streptokinase expression inhibitor project, dose response (AID 1900)", "assay_type": "functional, organism-based"}, "Interleukin-8 [20]": {"molecular_target": "T5, Interleukin-8", "experiment": "Dose Response confirmation of uHTS small molecule hits for cystic fibrosis induced NFkb Inhibitors in a TNFa-induced IL8 counterscreen.", "assay_type": "functional", "conditions": "read-out: IC50_Mean"}, "Streptococcus": {"tested_on": "Streptococcus", "experiment": "GAS UMAA2166 growth inhibition – luminescence, BacTiterGlo, counter-screen for streptokinase expression inhibitor project, dose response (AID 1915)", "assay_type": "functional, organism-based"}, "[21]": {"molecular_target": "Photoreceptor-specific nuclear receptor (Homo sapiens, UniProt Q9Y5X4)", "sequence (Q9Y5X4 whole entry)": "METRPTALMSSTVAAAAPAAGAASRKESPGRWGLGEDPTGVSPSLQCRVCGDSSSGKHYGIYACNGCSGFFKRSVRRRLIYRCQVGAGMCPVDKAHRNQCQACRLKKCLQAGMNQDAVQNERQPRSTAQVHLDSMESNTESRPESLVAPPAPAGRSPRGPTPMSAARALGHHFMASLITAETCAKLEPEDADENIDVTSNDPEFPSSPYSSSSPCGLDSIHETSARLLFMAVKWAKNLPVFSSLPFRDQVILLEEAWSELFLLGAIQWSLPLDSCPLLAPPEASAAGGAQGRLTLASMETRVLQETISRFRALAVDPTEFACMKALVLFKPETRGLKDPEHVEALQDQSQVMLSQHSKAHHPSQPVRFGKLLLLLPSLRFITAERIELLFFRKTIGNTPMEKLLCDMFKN", "assay_type": "functional, cell-based"}, "[22]": {"experiment": "nonselective StAR promoter luciferase inhibitors – cell-based, luminescence, luciferase reporter, counter-screen for LRH-1 inverse agonist project, dose response (AID 651969)", "assay_type": "functional"}, "[23]": {"molecular_target": "Nuclear receptor subfamily 5 group A member 2 (Homo sapiens, UniProt O00482)", "assay_type": "functional, cell-based"}, "Steroidogenic factor 1": {"molecular_target": "Steroidogenic factor 1 (Homo sapiens, UniProt Q13285)", "sequence (Q13285 whole entry)": "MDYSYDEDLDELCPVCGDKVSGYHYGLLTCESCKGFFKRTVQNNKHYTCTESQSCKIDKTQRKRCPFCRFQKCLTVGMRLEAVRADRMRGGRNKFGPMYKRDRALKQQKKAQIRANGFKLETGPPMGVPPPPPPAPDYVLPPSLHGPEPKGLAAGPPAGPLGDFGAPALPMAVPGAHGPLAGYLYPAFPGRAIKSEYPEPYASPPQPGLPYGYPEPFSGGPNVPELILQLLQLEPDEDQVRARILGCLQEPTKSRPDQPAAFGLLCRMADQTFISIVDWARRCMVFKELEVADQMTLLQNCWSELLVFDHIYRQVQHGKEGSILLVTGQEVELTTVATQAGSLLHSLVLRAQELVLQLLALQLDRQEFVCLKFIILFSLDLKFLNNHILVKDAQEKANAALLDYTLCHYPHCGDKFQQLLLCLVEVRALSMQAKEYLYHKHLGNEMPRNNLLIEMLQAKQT", "experiment": "Counterscreen for inverse agonists of the liver receptor homolog-1 (LRH-1; NR5A2): Luminescence-based cell-based high throughput dose response assay to identify inverse agonists of the Steroidogenic Factor 1 Nuclear Receptor (SF1; NR5A1).", "assay_type": "functional"}}, "note": "Activity calls are given as the source filed them.", "data": [{"smiles": "COc1ccc(Oc2c(Cl)cnn(CC(=O)N(C3CCCCC3)C3CCCCC3)c2=O)cc1", "values": [{"measurement": "IC50", "setting": "[1]", "value": "> 20 µM (inactive)"}, {"measurement": "IC50", "setting": "[2]", "value": "15.7 µM (inactive)"}]}, {"smiles": "CCN(CC)CCN=C(S)Nc1ccc2nc(N3CCN(C)CC3)cc(C)c2c1", "values": [{"measurement": "AC50", "setting": "[3]", "value": "5.01 µM (active)"}, {"measurement": "AC50", "setting": "[4]", "value": "17.2 µM (active)"}]}, {"smiles": "CN(Cc1ccccc1F)C(=O)CN1c2cccc3cccc(c23)S1(=O)=O", "values": [{"measurement": "IC50", "setting": "[5]", "value": "47.1 µM (inactive)"}, {"measurement": "IC50", "setting": "[6]", "value": "41 µM (inactive)"}]}, {"smiles": "O=C(NCc1ccccn1)c1ccc2c(=O)n3nc(Nc4ccccc4)sc3nc2c1", "values": [{"measurement": "IC50", "setting": "[7]", "value": "8.94 µM (active)"}, {"measurement": "IC50", "setting": "[8]", "value": "> 66.6 µM (inactive)"}]}, {"smiles": "CCN1CCN(Cc2ccc(NC(=O)c3ccc(C)c(NC(=O)C(=O)c4c[nH]c5ccccc45)c3)cc2C(F)(F)F)CC1", "values": [{"measurement": "AC50", "setting": "[9]", "value": "8.7 µM (active)"}, {"measurement": "EC50", "setting": "[10]", "value": "7.65 µM (active)"}, {"measurement": "IC50", "setting": "[11]", "value": "> 20 µM (inactive)"}, {"measurement": "EC50", "setting": "[12]", "value": "4.17 µM (inconclusive)"}, {"measurement": "EC50", "setting": "Streptokinase A", "value": "> 150 µM (not active)"}, {"measurement": "EC50", "setting": "Melanocortin receptor 4", "value": "> 89.2 µM (inactive)"}, {"measurement": "AC50", "setting": "[13]", "value": "14.1 µM (active)"}, {"measurement": "IC50", "setting": "Interleukin-8 [14]", "value": "2.27 µM (active)"}, {"measurement": "AC50", "setting": "Paired box protein Pax-8", "value": "12.1 µM (active)"}, {"measurement": "AC50", "setting": "[15]", "value": "12 µM (active)"}, {"measurement": "AC50", "setting": "[16]", "value": "11.3 µM (active)"}, {"measurement": "EC50", "setting": "[17]", "value": "5.83 µM (active)"}, {"measurement": "AC50", "setting": "[18]", "value": "68 µM (active)"}, {"measurement": "AC50", "setting": "INS1", "value": "7.69 µM (active)"}, {"measurement": "EC50", "setting": "[19]", "value": "4.28 µM (active)"}, {"measurement": "IC50", "setting": "Interleukin-8 [20]", "value": "39.7 µM (inactive)"}, {"measurement": "EC50", "setting": "Streptococcus", "value": "7.74 µM (active)"}]}, {"smiles": "O=C(C1CC1)N1CCc2cc(Br)cc(S(=O)(=O)N3CCN(c4ccccn4)CC3)c21", "values": [{"measurement": "IC50", "setting": "[21]", "value": "1.06 µM (active)"}]}, {"smiles": "COc1ccc(CCNC(=O)CSc2nc3nc(O)cc(O)c3s2)cc1", "values": [{"measurement": "IC50", "setting": "[22]", "value": "35.9 µM (inactive)"}, {"measurement": "IC50", "setting": "[23]", "value": "97.8 µM (inactive)"}, {"measurement": "IC50", "setting": "Steroidogenic factor 1", "value": "6.9 µM (active)"}]}]}
